Experimental data taken from US20050136536A1, “Embryonic epithelial cells” (priority 2003, published 2005).

Tested on: cytokeratin 7
Assay: differentiation of hES cells on gelatin-coated glass slides, cytokeratin 7 staining
Format: cell-based, human
Conditions: 300 nM AM580, serum medium, stained after 6 or 8 days
Description: H9 cells (Thomson, J. A., et al., “Embryonic stem cells lines derived from human blastocysts”, Science 282, 1145-1147 (1998)) were grown as described in Spradling, A., et al., “Stem cells find their niche”, Nature 414, 98-104 (2001), the entire contents of which are incorporated herein by reference. C2C12 cells were grown as described in Yaffee, D. & Saxel, O., “Serial passaging and differentiation of myogenic cells isolated from dystrophic mouse muscle”, Nature 270, 725-7 (1977). Specifically, hES cells (H9 clone) were grown on mouse embryo fibroblasts (Cell Essential) in KnockOut Medium (Gibco-BRL, Gaithersburg, Md.), a modified version of Dulbeco's modified Eagle's medium optimized for ES cells (Itskovitz-Eldor, et. al., (2000) Mol. Med. 6, 88-95, the contents of which are incorporated herein by reference). Tissue cover plates were covered with 0.1% gelatin (Sigma). Culture were grown in 5% CO2 and were routinely passaged every 5-6 days after disaggregating with 1 mg/ml collagenase type IV (Gibco-BRL). To induce formation of EBs, hES colonies were digested using either 1 mg/ml collagenase type IV or trypsin/EDTA (0.1%/1 mM) and transferred to petri dishes to allow their aggregation and prevent adherence to the plate. […]

## CC1(C)CCC(C)(C)c2cc(C(=O)Nc3ccc(C(=O)O)cc3)ccc21 [AM580]
  development of cytokeratin 7-positive cells: increases the development of cytokeratin 7-positive cells
